The assay concerns the target T1, NF-κB (human recombinant; p65 subunit used in docking) (Homo sapiens, UniProt Q04206).
T1 construct: gene RELA; human recombinant NF-κB protein, Sino Biological cat; No. 12054-H09E
Nature of the assay: microscale thermophoresis with labeled recombinant protein. It counts as binding.

Molecules are shown by their SMILES. Like-named read-outs stand apart in the source and are kept apart here.

As to `COc1cccc2c(-c3ccc4c(c3O)[C@@H](C)N[C@H](C)C4)c(C)c(-c3c(C)c(-c4ccc5c(c4O)[C@@H](C)N[C@H](C)C5)c4cccc(OC)c4c3O)c(O)c12` [jozimine A2], under “read-out: Kd”, the dissociation constant (Kd) was determined as 1660 ± 12 nM.

As to `COc1cc(C)cc2c(-c3c(O)cc(O)c4c3C[C@@H](C)N[C@@H]4C)cc(-c3cc(-c4c(O)cc(O)c5c4C[C@@H](C)N[C@@H]5C)c4cc(C)cc(OC)c4c3O)c(O)c12` [michellamine B], the Kd worked out at 2800 ± 94 nM.

The record behind these values is PMC10970593, “Jozimine A2, a Dimeric Naphthylisoquinoline (NIQ) Alkaloid, Shows In Vitro Cytotoxic Effects against Leukemia Cells through NF-κB Inhibition” (International Journal of Molecular Sciences, 2024).
